# From ChEMBL document CHEMBL3232946, “Development of 3,5-dinitrobenzoate-based 5-lipoxygenase inhibitors” (Bioorg Med Chem, 2014)
# Legend:
# [1] = target: T1, Polyunsaturated fatty acid 5-lipoxygenase (Homo sapiens, UniProt P09917); assay: Inhibition of human 5-LOX using arachidonic acid as substrate preincubated for 10 mins followed by substrate addition by H2DCFDA staining-based fluorometric analysis
# T1 sequence (P09917 whole entry): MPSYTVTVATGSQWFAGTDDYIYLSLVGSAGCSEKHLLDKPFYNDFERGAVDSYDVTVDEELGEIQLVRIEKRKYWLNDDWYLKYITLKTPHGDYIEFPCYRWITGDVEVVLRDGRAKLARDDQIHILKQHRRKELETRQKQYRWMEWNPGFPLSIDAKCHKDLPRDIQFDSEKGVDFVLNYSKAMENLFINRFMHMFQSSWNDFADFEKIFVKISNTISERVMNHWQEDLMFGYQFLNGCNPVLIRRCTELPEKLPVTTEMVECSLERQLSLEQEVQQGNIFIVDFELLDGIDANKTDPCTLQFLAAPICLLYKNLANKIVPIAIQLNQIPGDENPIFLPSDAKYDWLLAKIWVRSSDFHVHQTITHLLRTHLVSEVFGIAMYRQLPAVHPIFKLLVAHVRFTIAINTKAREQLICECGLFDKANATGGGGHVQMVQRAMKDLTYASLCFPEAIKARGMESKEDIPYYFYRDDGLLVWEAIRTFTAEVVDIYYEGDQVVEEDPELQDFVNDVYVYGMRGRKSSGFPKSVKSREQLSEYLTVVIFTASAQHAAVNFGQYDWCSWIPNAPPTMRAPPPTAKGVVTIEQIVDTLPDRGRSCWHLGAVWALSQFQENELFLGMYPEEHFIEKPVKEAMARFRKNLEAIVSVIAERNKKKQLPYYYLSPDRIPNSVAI
# [2] = target: T1, Polyunsaturated fatty acid 5-lipoxygenase; assay: Inhibition of 5-LOX in human whole blood assessed as inhibition of A23187-induced LTB4 production preincubated for 15 mins followed by A23187 induction measured after 30 mins by ELISA
SMILES,IC50 [1] [µM],IC50 [2] [µM]
O=C(Oc1cccc(Cl)c1Cl)c1cc([N+](=O)[O-])cc([N+](=O)[O-])c1,> 50,> 50
O=C(NCc1cccc(Br)c1)c1cc([N+](=O)[O-])cc([N+](=O)[O-])c1,83.6,14.4
COc1ccc(NC(=O)c2cc([N+](=O)[O-])cc([N+](=O)[O-])c2)cc1,0.034,2.7
O=C(Nc1cccc(-c2ccccc2)c1)c1cc([N+](=O)[O-])cc([N+](=O)[O-])c1,0.03,> 50
O=C(O)c1cccc(C(=O)Nc2cccc3ccccc23)c1,> 50,> 50
O=C(Oc1cccc2ccccc12)c1cc([N+](=O)[O-])cc([N+](=O)[O-])c1,1,–
O=C(Nc1cccc2ccccc12)c1cc([N+](=O)[O-])cc([N+](=O)[O-])c1,0.004,> 50
O=C(O)c1cccc(C(=O)OCc2ccccc2)c1,> 50,> 50
Cc1cccc(NC(=O)c2cc([N+](=O)[O-])cc([N+](=O)[O-])c2)c1,0.01,> 50
Cc1cccc(OC(=O)c2cc([N+](=O)[O-])cc([N+](=O)[O-])c2)c1,0.006,0.5
O=C(Nc1ccccc1)c1cc([N+](=O)[O-])cc([N+](=O)[O-])c1,1.8,15.2
O=C(Oc1cccc2ccccc12)c1cccc([N+](=O)[O-])c1,7.1,24.6
O=C(Nc1cccc(Br)c1)c1cc([N+](=O)[O-])cc([N+](=O)[O-])c1,> 50,> 50
COc1ccc(NC(=O)c2cc([N+](=O)[O-])cc([N+](=O)[O-])c2)cc1OC,1.1,> 50
O=C(O)c1cccc(C(=O)Nc2ccccc2)c1,> 50,> 50

# Further lines, results first:
IC50 [1] [µM],IC50 [2] [µM],SMILES
0.033,> 50,O=C(Nc1cccc(Cl)c1)c1cc([N+](=O)[O-])cc([N+](=O)[O-])c1
8.7,38,O=C(Oc1cccc(-c2ccccc2)c1)c1cc([N+](=O)[O-])cc([N+](=O)[O-])c1
7.4,6.5,CCCc1cccc(OC(=O)c2cc([N+](=O)[O-])cc([N+](=O)[O-])c2)c1
> 50,> 50,O=C(O)c1cccc(C(=O)Oc2cccc3ccccc23)c1
1.6,15.8,O=C(Oc1ccccc1)c1cc([N+](=O)[O-])cc([N+](=O)[O-])c1
> 50,> 50,O=C(Oc1ccc(-c2ccccc2)cc1)c1cc([N+](=O)[O-])cc([N+](=O)[O-])c1
